Experiments:
fascin = fascin (Homo sapiens (Human), UniProt Q16658); experiment: High throughput fascin inhibition assay (actin bundling, F-actin imaging); type: biochemical
Method: A high throughput assay was developed to screen for fascin specific inhibitors. Purified polymerized F-actin with or without fascin were mixed and incubated to allow actin bundle formation. F-actin polymers were then bound to the poly-D-lysine coated plates. […] Four images were taken from each well and the average fiber length was analyzed for each tested compound.
Recombinant human fascin 1 was expressed as a GST fusion protein in BL21 Escherichia coli. One liter of 2YT medium with ampicillin was inoculated overnight with 3 mL of BL21/DE3 culture transformed with pGEX4T-fascin 1 plasmid and grown at 37° C. until attenuance at 600 nm (D600) reached about 0.8. The culture was then transferred to 18° C. and induced by the addition of 0.1 mM isopropyl β-d-thiogalactoside (IPTG) for 12 h. Bacteria were harvested by centrifugation at 5,000 r.p.m. for 10 min. The pellets were suspended in 30 mL of PBS supplemented with 0.2 mM PMSF, 1 mM DTT, 1% (v/v) Triton X-100 and 1 mM EDTA. After sonication, the suspension was centrifuged at 15,000 r.p.m. for 30 min to remove the cell debris. The supernatant was then incubated for 2 h with 4 mL of glutathione beads (Sigma) at 4° C. After extensive washing with PBS, the beads were resuspended in 10 mL of thrombin cleavage buffer (20 mM Tris-HCl pH 8.0, 150 mM NaCl, 2 mM CaCl2, 1 mM DTT). Fascin was released from the beads by incubation overnight with 40-100 U of thrombin at 4° C. After centrifugation, 0.2 mM PMSF was added to the supernatant to inactivate the remnant thrombin activity. The fascin protein was further concentrated with a Centricon® (Boca Raton, Fla.) filter to about 50 mg/mL.
About 150,000 compounds were screened. […] Purified fascin protein (15 μL of 0.5 μM) in buffer (100 mM KCl, 20 mM Tris/HCl, pH 7.5, 2 mM MgCl2) was added into each well of a clear 384-well flat-bottom plate (Corning) using Thermo Multidrop Combi (Fisher). Compound ([…]) solutions (5 mM stock) from various chemical libraries were pin transferred from stock 384-well plates into the 384-well assay plates and incubated for 30 min. Then 15 μL of 0.5 μM polymerized actin (in 100 mM KCl, 20 mM Tris/HCl, pH 7.5, 2 mM MgCl2, 1 mM DTT, 1 mM ATP) (Cytoskeleton Inc.) was added, resulting in 30 μM final concentration for chemical compounds. […] Mixed solution (25 μL) was then transferred to one well in a black 384-well plate coated with poly-D-lysine, and stained actin bundles or F-actin would stick onto the poly-D-lysine plates. After the plates were thoroughly washed with 1×PBS for 3 times, the plate was imaged using an ImageXpress Micro High Content Screening System (Molecular devices). The images were processed and analyzed using MetaMorph software. The raw image data for each well was background-corrected by subtraction of the median intensities across all wells on the plate. The background-corrected data was used to compute the bundle length for each well. The negative control wells were employed for quality control: multiple DMSO-only control wells (16 wells/plate) were present on each assay plate.

4T1 breast tumor cells = experiment: Boyden-chamber cell migration assay, 4T1; type: cell-based
Method: Since fascin is critical for tumor cell migration, inhibitors of fascin should block tumor cell migration. Representative compounds were selected from the above-identified fascin inhibitors to test their abilities on inhibition of tumor cell migration (See Table 2). […] The cell lines used are listed below.
Exemplifying procedure: MDA-MB-231 cells (5×10^4) or 4T1 Cells (1×10^5) suspended in 100 μL starvation medium were added to the upper chamber of an insert (6.5 mm diameter, 8 μm pore size; Becton Dickson), and the insert was placed in a 24-well plate containing 700 μL starvation medium with or without 10% FBS. […] Migration assays were performed for 6 h and cells were fixed with 3.7% formaldehyde. Cells were stained with crystal violet staining solution, and cells on the upper side of the insert were removed with a cotton swab. Three randomly selected fields (×10 objectives) on the lower side of the insert were photographed, and the migrated cells were counted. Migration was expressed as average number of migrated cells in a field.

Row | SMILES | IC50 (fascin) [µM] | IC50 (4T1 breast tumor cells) [µM]
1 | O=c1c2cnn(C3CCS(=O)(=O)C3)c2ncn1Cc1ccc(Cl)c(Cl)c1 [Compound 1, 5-(3,4-dichlorobenzyl)-1-(S,S,-dioxo-tetrahydrothiophen-3-yl)-1H-pyrazolo[3,4-d]pyrimidin-4(5H)-one] | 0.734 | 
2 | O=C(Nc1nn(Cc2ccc(C(F)(F)F)cc2)c2ccccc12)c1ccco1 [Compound 2, N-(1-(4-(trifluoromethyl)benzyl)-1H-indazol-3-yl)furan-2-carboxamide] | 2 | 
3 | CNc1nc(-c2ccccc2)[n+](-c2ccccc2)s1 [Compound 5, N-methyl-2,3-diphenyl-1,2,4-thiadiazolium-5-amine] | 0.5 | 30
4 | c1ccc(CNc2nc(-c3ccccc3)[n+](-c3ccccc3)s2)cc1 [Compound 6, N-benzyl-2,3-diphenyl-1,2,4-thiadiazolium-5-amine] | 5 | 
5 | c1ccc(Nc2nc(-c3ccccc3)[n+](-c3ccccc3)s2)cc1 [Compound 7, N-phenyl-2,3-diphenyl-1,2,4-thiadiazolium-5-amine] | 2 | > 50
6 | Cc1ccc(C)c(S(=O)(=O)Nc2cc(Sc3nc[nH]n3)c(O)c3ccccc23)c1 [Compound 8, N-(3-(1H-1,2,4-triazol-3-ylthio)-4-hydroxynaphthalen-1-yl)-2,5-dimethylbenzenesulfonamide] | 0.683 | 20
7 | CCOc1ccc(S(=O)(=O)Nc2cc(Sc3nc[nH]n3)c(O)c3ccccc23)cc1 [Compound 9, N-(3-(1H-1,2,4-triazol-3-ylthio)-4-hydroxynaphthalen-1-yl)-4-ethoxybenzenesulfonamide] | 1.47 | > 20
8 | CCc1ccc(S(=O)(=O)Nc2cc(Sc3nc[nH]n3)c(O)c3ccccc23)cc1 [Compound 11, N-(3-(1H-1,2,4-triazol-3-ylthio)-4-hydroxynaphthalen-1-yl)-4-ethylbenzenesulfonamide] | 0.89 | ~20
9 | Cc1cc(C)c(S(=O)(=O)Nc2cc(Sc3nc[nH]n3)c(O)c3ccccc23)cc1C [Compound 12, N-(3-(1H-1,2,4-triazol-3-ylthio)-4-hydroxynaphthalen-1-yl)-2,4,5-trimethylbenzenesulfonamide] | 0.539 | 16
10 | O=C1C(Sc2nc[nH]n2)=C/C(=N/S(=O)(=O)c2ccccc2)c2ccccc21 [Compound 13, (Z)-N-(3-(1H-1,2,4-triazol-3-ylthio)-4-oxonaphthalen-1(4H)-ylidene)benzenesulfonamide] | 2 | > 30
11 | O=S(=O)(Nc1cc(Sc2nc[nH]n2)c(O)c2ccccc12)c1ccc(Br)cc1 [Compound 14, N-(3-(1H-1,2,4-triazol-3-ylthio)-4-hydroxynaphthalen-1-yl)-4-bromobenzenesulfonamide] | 2.62 | ~25
12 | Cc1ccc(S(=O)(=O)Nc2cc(Sc3nc[nH]n3)c(O)c3ccccc23)c(C)c1 [Compound 15, N-(3-(1H-1,2,4-triazol-3-ylthio)-4-hydroxynaphthalen-1-yl)-2,4-dimethylbenzenesulfonamide] | 2.7 | > 30
13 | O=S(=O)(Nc1nc2ccc(Oc3ccccc3)cc2s1)c1cccc(Cl)c1 [Compound 16, 3-chloro-N-(6-phenoxybenzo[d]thiazol-2-yl)benzenesulfonamide] | ~4 | ~7
14 | O=[N+]([O-])c1cccc(S(=O)(=O)Nc2nc3ccc(F)cc3s2)c1 [Compound 17, N-(6-fluorobenzo[d]thiazol-2-yl)-3-nitrobenzenesulfonamide] | ~4 | ~60
15 | O=S(=O)(Nc1nc2ccc(F)cc2s1)c1cccc(Cl)c1Cl [Compound 18, 2,3-dichloro-N-(6-fluorobenzo[d]thiazol-2-yl)benzenesulfonamide] | ~13 | ~3
16 | CC(=O)Nc1nc2ccc(Cl)cc2s1 [Compound 19, N-(6-chlorobenzo[d]thiazol-2-yl)acetamide] | ~2 | ~25
17 | O=C(/C=C/c1ccccc1)Nc1nc2ccccc2s1 [Compound 20, N-(benzo[d]thiazol-2-yl)cinnamamide] | ~4 | ~60
18 | O=c1c2cnn(CCO)c2ncn1Cc1cccc(Cl)c1 [Compound 21, 5-(3-chlorobenzyl)-1-(2-hydroxyethyl)-1H-pyrazolo[3,4-d]pyrimidin-4(5H)-one] | 1.2 | 
19 | O=C(Cn1cnc2c(cnn2C2CCS(=O)(=O)C2)c1=O)Nc1cccc(C(F)(F)F)c1 [Compound 23, 2-(4-oxo-1-(S,S,-dioxo-tetrahydrothiophen-3-yl)-1H-pyrazolo[3,4-d]pyrimidin-5(4H)-yl)-N-(3-(trifluoromethyl)phenyl)acetamide] | 3.4 | 
20 | O=C(Cn1cnc2c(cnn2C2CCS(=O)(=O)C2)c1=O)NCc1ccc(F)cc1 [Compound 24, N-(4-fluorobenzyl)-2-(4-oxo-1-(S,S-dioxo-tetrahydrothiophen-3-yl)-1H-pyrazolo[3,4-d]pyrimidin-5(4H)-yl)acetamide] | 4.3 | 
21 | O=C(Cn1cnc2c(cnn2C2CCS(=O)(=O)C2)c1=O)NCc1ccc2c(c1)OCO2 [Compound 25, N-(benzo[d][1,3]dioxol-5-ylmethyl)-2-(4-oxo-1-(S,S-dioxo-tetrahydrothiophen-3-yl)-1H-pyrazolo[3,4-d]pyrimidin-5(4H)-yl)acetamide] | 4.6 | 
22 | O=C(Cn1cnc2c(cnn2C2CCS(=O)(=O)C2)c1=O)Nc1ccc(Cl)cc1 [Compound 26, N-(4-chlorophenyl)-2-(4-oxo-1-(S,S-dioxo-tetrahydrothiophen-3-yl)-1H-pyrazolo[3,4-d]pyrimidin-5(4H)-yl)acetamide] | 4.3 | 
23 | O=C(Cn1cnc2c(cnn2C2CCS(=O)(=O)C2)c1=O)c1ccc2c(c1)OCCO2 [Compound 27, 5-(2-(2,3-dihydrobenzo[b][1,4]dioxin-6-yl)-2-oxoethyl)-1-(S,S-dioxo-tetrahydrothiophen-3-yl)-1H-pyrazolo[3,4-d]pyrimidin-4(5H)-one] | ~10 | 
24 | Cc1ccc(C(=O)Cn2cnc3c(cnn3C3CCS(=O)(=O)C3)c2=O)c(C)c1 [Compound 28, 5-(2-(2,4-dimethylphenyl)-2-oxoethyl)-1-(S,S-dioxo-tetrahydrothiophen-3-yl)-1H-pyrazolo[3,4-d]pyrimidin-4(5H)-one] | 4.7 | 
25 | O=C(Cn1cnc2c(cnn2C2CCS(=O)(=O)C2)c1=O)c1ccc2c(c1)OCO2 [Compound 29, 5-(2-(benzo[d][1,3]dioxol-5-yl)-2-oxoethyl)-1-(S,S-dioxo-tetrahydrothiophen-3-yl)-1H-pyrazolo[3,4-d]pyrimidin-4(5H)-one] | 3.7 | 
26 | Cc1ccccc1-n1ncc2c(=O)n(Cc3ccc(Cl)c(Cl)c3)cnc21 [Compound 30, 5-(3,4-dichlorobenzyl)-1-o-tolyl-1H-pyrazolo[3,4-d]pyrimidin-4(5H)-one] | 2 | 
27 | Cc1cccc(-n2ncc3c(=O)n(Cc4ccc(Cl)c(Cl)c4)cnc32)c1C [Compound 31, 5-(3,4-dichlorobenzyl)-1-(2,3-dimethylphenyl)-1H-pyrazolo[3,4-d]pyrimidin-4(5H)-one] | 2.3 | 
28 | Cc1ccc(-n2ncc3c(=O)n(Cc4ccc(Cl)c(Cl)c4)cnc32)c(C)c1 [Compound 32, 5-(3,4-dichlorobenzyl)-1-(2,4-dimethylphenyl)-1H-pyrazolo[3,4-d]pyrimidin-4(5H)-one] | 2.1 | 
